Measurements: patent publication US9227971B2, “Pyrazolo[1,5-a]pyrimidine compounds as mTOR inhibitors” (Merck Sharp & Dohme Corp., priority 2010, dated 2016)

Tests used:
[1] = system: phosphorylated AKT Ser473 (pAKT S473), mTORC2 activity, PC3 cells; test: mTOR target engagement assay, immunofluorescent cell-based, pAKT S473 readout (mTORC2 activity); conditions: Homo sapiens, PC-3, Table 3-1; PC3 cells
In short: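 After blocking, cells were stained overnight at 4 °C with anti-pAKT S473 antibody, then a fluorescent secondary; inhibition was read as reduced fluorescence intensity.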

[2] = system: phosphorylated 4E-BP1 Thr37/46 (p4E-BP1 Thr37/46), mTORC1 activity, PC3 cells; test: mTOR target engagement assay, immunofluorescent cell-based, p4E-BP1 Thr37/46 readout (mTORC1 activity); conditions: Homo sapiens, PC-3, Table 3-1; PC3 cells; read-out: p4E-BP1 Thr37/46 IC50
In short: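 Read-out is fluorescence intensity of immunostained p4E-BP1 Thr37/46 in fixed PC3 cells, fitted to a logistic curve for IC50 with DMSO-only wells as top. Cells had been exposed to serial compound dilutions for ninety minutes at 37° C in 5% FBS medium with 0.25% DMSO.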

How did the IC50 [1] turn out when `COc1ccc(-c2ccc(-c3cnn4c(N)c(S(C)(=O)=O)c([C@@H]5C[C@H]6CC[C@@H](C5)N6C(=O)c5nnc[nH]5)nc34)cn2)cc1F` [Compound 3.37, ((1R,3s,5S)-3-(7-amino-3-(6-(3-fluoro-4-methoxyphenyl)pyridin-3-yl)-6-(methylsulfonyl)pyrazolo[1,5-a]pyrimidin-5-yl)-8-azabicyclo[3.2.1]octan-8-yl)(4H-1,2,4-triazol-3-yl)methanone] was run?
Its IC50 is 1 to 100 nM.

And the IC50 [2]?
Its IC50 is 1 to 100 nM.

How did the IC50 [1] turn out when `COc1ccc(-c2ccc(-c3cnn4c(N)c(S(C)(=O)=O)c([C@@H]5C[C@H]6CC[C@@H](C5)N6C(=O)CO)nc34)cn2)cc1F` [Compound 3.38, 1-((1R,3s,5S)-3-(7-amino-3-(6-(3-fluoro-4-methoxyphenyl)pyridin-3-yl)-6-(methylsulfonyl)pyrazolo[1,5-a]pyrimidin-5-yl)-8-azabicyclo[3.2.1]octan-8-yl)-2-hydroxyethanone] was run?
The IC50 was 1 to 100 nM.

And the IC50 [2]?
Its IC50 is 100 to 1000 nM.

Which results are given for `COc1ccc(-c2ccc(-c3cnn4c(N)c(S(C)(=O)=O)c([C@@H]5C[C@H]6CC[C@@H](C5)N6C(=O)c5nnc[nH]5)nc34)cn2)cc1OC` [Compound 3.39, ((1R,3s,5S)-3-(7-amino-3-(6-(3,4-dimethoxyphenyl)pyridin-3-yl)-6-(methylsulfonyl)pyrazolo[1,5-a]pyrimidin-5-yl)-8-azabicyclo[3.2.1]octan-8-yl)(4H-1,2,4-triazol-3-yl)methanone]?
IC50 [1]: 100 to 1000 nM; IC50 [2]: 100 to 1000 nM

For `Cn1ccc(-c2ccc(-c3cnn4c(N)c(S(C)(=O)=O)c([C@@H]5C[C@H]6CC[C@@H](C5)N6C(=O)c5nnc[nH]5)nc34)cn2)n1` [Compound 3.40, ((1R,3s,5S)-3-(7-amino-3-(6-(1-methyl-1H-pyrazol-3-yl)pyridin-3-yl)-6-(methylsulfonyl)pyrazolo[1,5-a]pyrimidin-5-yl)-8-azabicyclo[3.2.1]octan-8-yl)(4H-1,2,4-triazol-3-yl)methanone], which IC50 [1] is on record?
Its IC50 is 1 to 100 nM.

What about the IC50 [2] of the same compound?
The IC50 was 1 to 100 nM.

How did the IC50 [1] turn out when `Cn1ccc(-c2ccc(-c3cnn4c(N)c(S(C)(=O)=O)c([C@@H]5C[C@H]6CC[C@@H](C5)N6C(=O)c5nnc[nH]5)nc34)c[n+]2[O-])n1` [Compound 3.41, 5-(5-((1R,3s,5S)-8-(4H-1,2,4-triazole-3-carbonyl)-8-azabicyclo[3.2.1]octan-3-yl)-7-amino-6-(methylsulfonyl)pyrazolo[1,5-a]pyrimidin-3-yl)-2-(1-methyl-1H-pyrazol-3-yl)pyridine 1-oxide] was run?
Its IC50 is 1 to 100 nM.

What about the IC50 [2] of the same compound?
The IC50 was 100 to 1000 nM.

Which IC50 [1] does the source give for `Cn1nnc(-c2ccc(-c3cnn4c(N)c(S(C)(=O)=O)c([C@@H]5C[C@H]6CC[C@@H](C5)N6C(=O)c5nnc[nH]5)nc34)cn2)n1` [Compound 3.42, ((1R,3a,5S)-3-(7-amino-3-(6-(2-methyl-2H-tetrazol-5-yl)pyridin-3-yl)-6-(methylsulfonyl)pyrazolo[1,5-a]pyrimidin-5-yl)-8-azabicyclo[3.2.1]octan-8-yl)(4H-1,2,4-triazol-3-yl)methanone] here?
The IC50 was 100 to 1000 nM.

And the IC50 [2]?
The IC50 was 1000 to 10000 nM.

With `Cn1nnc(-c2ccc(-c3cnn4c(N)c(S(C)(=O)=O)c([C@@H]5C[C@H]6CC[C@@H](C5)N6C(=O)CO)nc34)cn2)n1` [Compound 3.43, 1-((1R,3a,5S)-3-(7-amino-3-(6-(2-methyl-2H-tetrazol-5-yl)pyridin-3-yl)-6-(methylsulfonyl)pyrazolo[1,5-a]pyrimidin-5-yl)-8-azabicyclo[3.2.1]octan-8-yl)-2-hydroxyethanone] as the compound, how does the IC50 [1] read?
The IC50 was 1000 to 10000 nM.

What about the IC50 [2] of the same compound?
Its IC50 is over 10000 nM.

What does the source list for `CS(=O)(=O)c1c([C@@H]2C[C@H]3CC[C@@H](C2)N3C(=O)c2nnc[nH]2)nc2c(-c3ccc(-c4ccc(F)c(F)c4)nc3)cnn2c1N` [Compound 3.44, ((1R,3s,5S)-3-(7-amino-3-(6-(3,4-difluorophenyl)pyridin-3-yl)-6-(methylsulfonyl)pyrazolo[1,5-a]pyrimidin-5-yl)-8-azabicyclo[3.2.1]octan-8-yl)(4H-1,2,4-triazol-3-yl)methanone]?
IC50 [1]: 1 to 100 nM; IC50 [2]: 1 to 100 nM

Which results are given for `Cc1ccc(-c2ccc(-c3cnn4c(N)c(S(C)(=O)=O)c([C@@H]5C[C@H]6CC[C@@H](C5)N6C(=O)c5nnc[nH]5)nc34)cn2)cc1F` [Compound 3.45, ((1R,3s,5S)-3-(7-amino-3-(6-(3-fluoro-4-methylphenyl)pyridin-3-yl)-6-(methylsulfonyl)pyrazolo[1,5-a]pyrimidin-5-yl)-8-azabicyclo[3.2.1]octan-8-yl)(4H-1,2,4-triazol-3-yl)methanone]?
IC50 [1]: 1 to 100 nM; IC50 [2]: 1 to 100 nM

With `CS(=O)(=O)c1c([C@@H]2C[C@H]3CC[C@@H](C2)N3C(=O)c2nnc[nH]2)nc2c(-c3ccc(-c4cccc(F)c4)nc3)cnn2c1N` [Compound 3.46, ((1R,3s,5S)-3-(7-amino-3-(6-(3-fluorophenyl)pyridin-3-yl)-6-(methylsulfonyl)pyrazolo[1,5-a]pyrimidin-5-yl)-8-azabicyclo[3.2.1]octan-8-yl)(4H-1,2,4-triazol-3-yl)methanone] as the compound, how does the IC50 [1] read?
Its IC50 is 1 to 100 nM.

And the IC50 [2]?
Its IC50 is 1 to 100 nM.

`CS(=O)(=O)c1c([C@@H]2C[C@H]3CC[C@@H](C2)N3C(=O)c2nnc[nH]2)nc2c(-c3ccc(-c4cccc(F)c4F)nc3)cnn2c1N` [Compound 3.47, ((1R,3s,5S)-3-(7-amino-3-(6-(2,3-difluorophenyl)pyridin-3-yl)-6-(methylsulfonyl)pyazolo[1,5-a]pyrimidin-5-yl)-8-azabicyclo[3.2.1]octan-8-yl)(4H-1,2,4-triazol-3-yl)methanone] was tested. Which IC50 [1] did it give?
Its IC50 is 1 to 100 nM.

What about the IC50 [2] of the same compound?
The IC50 was 1 to 100 nM.

How did the IC50 [1] turn out when `CS(=O)(=O)c1c([C@@H]2C[C@H]3CC[C@@H](C2)N3C(=O)c2nnc[nH]2)nc2c(-c3ccc(-c4ncccc4F)nc3)cnn2c1N` [Compound 3.48, ((1R,3s,5S)-3-(7-amino-3-(3′-fluoro-2,2′-bipyridin-5-yl)-6-(methylsulfonyl)pyrazolo[1,5-a]pyrimidin-5-yl)-8-azabicyclo[3.2.1]octan-8-yl)(4H-1,2,4-triazol-3-yl)methanone] was run?
Its IC50 is 1 to 100 nM.

What about the IC50 [2] of the same compound?
The IC50 was 1 to 100 nM.

Which results are given for `COc1c(F)cc(-c2ccc(-c3cnn4c(N)c(S(C)(=O)=O)c([C@@H]5C[C@H]6CC[C@@H](C5)N6C(=O)c5nnc[nH]5)nc34)cn2)cc1F` [Compound 3.49, ((1R,3s,5S)-3-(7-amino-3-(6-(3,5-difluoro-4-methoxyphenyl)pyridin-3-yl)-6-(methylsulfonyl)pyrazolo[1,5-a]pyrimidin-5-yl)-8-azabicyclo[3.2.1]octan-8-yl)(4H-1,2,4-triazol-3-yl)methanone]?
IC50 [1]: 100 to 1000 nM; IC50 [2]: 100 to 1000 nM

For `COc1ccc(-c2ccc(-c3cnn4c(N)c(S(C)(=O)=O)c([C@@H]5C[C@H]6CC[C@@H](C5)N6C(=O)c5nnc[nH]5)nc34)cn2)cc1C` [Compound 3.50, ((1R,3s,5S)-3-(7-amino-3-(6-(4-methoxy-3-methylphenyl)pyridin-3-yl)-6-(methylsulfonyl)pyrazolo[1,5-a]pyrimidin-5-yl)-8-azabicyclo[3.2.1]octan-8-yl)(4H-1,2,4-triazol-3-yl)methanone], which IC50 [1] is on record?
Its IC50 is 1 to 100 nM.

What about the IC50 [2] of the same compound?
The IC50 was 1 to 100 nM.

Which IC50 [1] does the source give for `COc1ccc(-c2ccc(-c3cnn4c(N)c(S(C)(=O)=O)c([C@@H]5C[C@H]6CC[C@@H](C5)N6C(=O)c5nnc[nH]5)nc34)cn2)cc1Cl` [Compound 3.51, ((1R,3s,5S)-3-(7-amino-3-(6-(3-chloro-4-methoxyphenyl)pyridin-3-yl)-6-(methylsulfonyl)pyrazolo[1,5-a]pyrimidin-5-yl)-8-azabicyclo[3.2.1]octan-8-yl)(4H-1,2,4-triazol-3-yl)methanone] here?
The IC50 was 1 to 100 nM.

And the IC50 [2]?
Its IC50 is 1 to 100 nM.

`CS(=O)(=O)c1c([C@@H]2C[C@H]3CC[C@@H](C2)N3C(=O)c2nnc[nH]2)nc2c(-c3ccc(-c4ccc5c(c4)OCO5)nc3)cnn2c1N` [Compound 3.52, ((1R,3s,5S)-3-(7-amino-3-(6-(benzo[d][1,3]dioxol-5-yl)pyridin-3-yl)-6-(methylsulfonyl)pyrazolo[1,5-a]pyrimidin-5-yl)-8-azabicyclo[3.2.1]octan-8-yl)(4H-1,2,4-triazol-3-yl)methanone] was tested. Which IC50 [1] did it give?
Its IC50 is 1 to 100 nM.

And the IC50 [2]?
Its IC50 is 1 to 100 nM.

What does the source list for `CS(=O)(=O)c1c([C@@H]2C[C@H]3CC[C@@H](C2)N3C(=O)c2nnc[nH]2)nc2c(-c3ccc(-c4ccc5c(c4)OC(F)(F)O5)nc3)cnn2c1N` [Compound 3.53, ((1R,3s,5S)-3-(7-amino-3-(6-(2,2-difluorobenzo[d][1,3]dioxol-5-yl)pyridin-3-yl)-6-(methylsulfonyl)pyrazolo[1,5-a]pyrimidin-5-yl)-8-azabicyclo[3.2.1]octan-8-yl)(4H-1,2,4-triazol-3-yl)methanone]?
IC50 [1]: 100 to 1000 nM; IC50 [2]: 1000 to 10000 nM

How did the IC50 [1] turn out when `COc1ccc(-c2ccc(-c3cnn4c(N)c(S(C)(=O)=O)c([C@@H]5C[C@H]6CC[C@@H](C5)N6C(=O)c5nnc[nH]5)nc34)cn2)c(F)c1F` [Compound 3.54, ((1R,3s,5S)-3-(7-amino-3-(6-(2,3-difluoro-4-methoxyphenyl)pyridin-3-yl)-6-(methylsulfonyl)pyrazolo[1,5-a]pyrimidin-5-yl)-8-azabicyclo[3.2.1]octan-8-yl)(4H-1,2,4-triazol-3-yl)methanone] was run?
The IC50 was 1 to 100 nM.

And the IC50 [2]?
Its IC50 is 1 to 100 nM.

With `CS(=O)(=O)c1c([C@@H]2C[C@H]3CC[C@@H](C2)N3C(=O)c2nnc[nH]2)nc2c(-c3ccc(-c4ccc(OC(F)F)cc4)nc3)cnn2c1N` [Compound 3.55, ((1R,3s,5S)-3-(7-amino-3-(6-(4-(difluoromethoxy)phenyl)pyridin-3-yl)-6-(methylsulfonyl)pyrazolo[1,5-a]pyrimidin-5-yl)-8-azabicyclo[3.2.1]octan-8-yl)(4H-1,2,4-triazol-3-yl)methanone] as the compound, how does the IC50 [1] read?
The IC50 was 1 to 100 nM.

And the IC50 [2]?
Its IC50 is 1 to 100 nM.
